Data as given in the NIST ThermoML archive (doi:10.1021/acs.jced.8b00403).

Assay: wn = mass fraction of the nth substance listed
Conditions: 101.33 kPa, Liquid; for viscosity: Concentric cylinders viscometry; for mass density: Vibrating tube method

OCCCO [propan-1,3-diol] + O
Conditions | mass density [kg/m3] | viscosity [mPa·s]
253.15 K, w1 = 0.4453 | 1053.7 | 40.11
253.15 K, w1 = 0.501 | 1058 | 49.09
253.15 K, w1 = 0.6123 | 1068.2 | 85.87
253.15 K, w1 = 0.7236 | 1074.9 | 158.67
253.15 K, w1 = 0.8349 | 1078.5 | 267.81
253.15 K, w1 = 0.9277 | 1079.6 | 418.56
253.15 K, w1 = 1 | 1078.2 | 574.39
258.15 K, w1 = 0.4453 | 1051.8 | 29.02
258.15 K, w1 = 0.501 | 1055.9 | 35.24
258.15 K, w1 = 0.6123 | 1065.8 | 63.15
258.15 K, w1 = 0.7236 | 1072.2 | 110.64
258.15 K, w1 = 0.8349 | 1075.5 | 184.18
258.15 K, w1 = 0.9277 | 1076.5 | 293.3
258.15 K, w1 = 1 | 1075.4 | 409.88
263.15 K, w1 = 0.334 | 1035.2 | 12.02
263.15 K, w1 = 0.4453 | 1047.7 | 19.91
263.15 K, w1 = 0.501 | 1052.5 | 24.97
263.15 K, w1 = 0.6123 | 1062.1 | 44.2
263.15 K, w1 = 0.7236 | 1068.4 | 76.18
263.15 K, w1 = 0.8349 | 1072.2 | 132.29
263.15 K, w1 = 0.9277 | 1073.2 | 206.53
263.15 K, w1 = 1 | 1072.3 | 289.5
268.15 K, w1 = 0.2226 | 1022.1 | 5.908
268.15 K, w1 = 0.334 | 1033.9 | 9.252
268.15 K, w1 = 0.4453 | 1045.7 | 15.12
268.15 K, w1 = 0.501 | 1050.3 | 18.81
268.15 K, w1 = 0.6123 | 1059.5 | 32.82
268.15 K, w1 = 0.7236 | 1065.6 | 55.72
268.15 K, w1 = 0.8349 | 1069.3 | 95.75
268.15 K, w1 = 0.9277 | 1070.1 | 149.24
268.15 K, w1 = 1 | 1069 | 207.88
273.15 K, w1 = 0.1113 | 1009.7 | 2.894
273.15 K, w1 = 0.2226 | 1021.3 | 4.695
273.15 K, w1 = 0.334 | 1032.5 | 7.257
273.15 K, w1 = 0.4453 | 1043.7 | 11.74
273.15 K, w1 = 0.501 | 1048.1 | 14.52
273.15 K, w1 = 0.6123 | 1056.9 | 24.88
273.15 K, w1 = 0.7236 | 1062.7 | 41.58
273.15 K, w1 = 0.8349 | 1066.3 | 70.71
273.15 K, w1 = 0.9277 | 1067.1 | 109.69
273.15 K, w1 = 1 | 1065.9 | 152.75
283.15 K, w1 = 0.1113 | 1008.8 | 2.055
283.15 K, w1 = 0.2226 | 1019.2 | 3.165
283.15 K, w1 = 0.334 | 1029.2 | 4.748
283.15 K, w1 = 0.4453 | 1039.3 | 7.451
283.15 K, w1 = 0.501 | 1043.3 | 9.1
283.15 K, w1 = 0.6123 | 1051.4 | 15.1
283.15 K, w1 = 0.7236 | 1056.8 | 24.57
283.15 K, w1 = 0.8349 | 1060.2 | 40.76
283.15 K, w1 = 0.9277 | 1061 | 62.32
283.15 K, w1 = 1 | 1059.8 | 86.48
293.15 K, w1 = 0.1113 | 1006.7 | 1.529
293.15 K, w1 = 0.2226 | 1016.3 | 2.251
293.15 K, w1 = 0.334 | 1025.4 | 3.318
293.15 K, w1 = 0.4453 | 1034.5 | 5.035
293.15 K, w1 = 0.501 | 1038.3 | 6.074
293.15 K, w1 = 0.6123 | 1045.7 | 9.77
293.15 K, w1 = 0.7236 | 1050.9 | 15.48
293.15 K, w1 = 0.8349 | 1054 | 25
293.15 K, w1 = 0.9277 | 1054.7 | 37.6
293.15 K, w1 = 1 | 1053.6 | 52.01
303.15 K, w1 = 0.1113 | 1004.1 | 1.189
303.15 K, w1 = 0.2226 | 1012.9 | 1.689
303.15 K, w1 = 0.334 | 1021.1 | 2.421
303.15 K, w1 = 0.4453 | 1029.5 | 3.585
303.15 K, w1 = 0.501 | 1033 | 4.306
303.15 K, w1 = 0.6123 | 1039.9 | 6.724
303.15 K, w1 = 0.7236 | 1044.8 | 10.32
303.15 K, w1 = 0.8349 | 1047.8 | 16.26
303.15 K, w1 = 0.9277 | 1048.5 | 24.03
303.15 K, w1 = 1 | 1047.4 | 32.92
313.15 K, w1 = 0.1113 | 1000.4 | 0.9825
313.15 K, w1 = 0.2226 | 1008.3 | 1.332
313.15 K, w1 = 0.334 | 1016.3 | 1.857
313.15 K, w1 = 0.4453 | 1023.9 | 2.659
313.15 K, w1 = 0.501 | 1027.3 | 3.148
313.15 K, w1 = 0.6123 | 1033.8 | 4.725
313.15 K, w1 = 0.7236 | 1038.6 | 7.184
313.15 K, w1 = 0.8349 | 1041.5 | 11.05
313.15 K, w1 = 0.9277 | 1042.2 | 16.04
313.15 K, w1 = 1 | 1041.1 | 21.79
323.15 K, w1 = 0.1113 | 996.2 | 0.7887
323.15 K, w1 = 0.2226 | 1003.5 | 1.076
323.15 K, w1 = 0.334 | 1010.8 | 1.465
323.15 K, w1 = 0.4453 | 1018.1 | 2.051
323.15 K, w1 = 0.501 | 1021.3 | 2.401
323.15 K, w1 = 0.6123 | 1027.4 | 3.522
323.15 K, w1 = 0.7236 | 1032.1 | 5.219
323.15 K, w1 = 0.8349 | 1035 | 7.801
323.15 K, w1 = 0.9277 | 1035.8 | 11.15
323.15 K, w1 = 1 | 1034.8 | 15
333.15 K, w1 = 0.1113 | 991.1 | 0.6769
333.15 K, w1 = 0.2226 | 998.3 | 0.8845
333.15 K, w1 = 0.334 | 1005.2 | 1.194
333.15 K, w1 = 0.4453 | 1011.8 | 1.641
333.15 K, w1 = 0.501 | 1014.8 | 1.885
333.15 K, w1 = 0.6123 | 1020.9 | 2.698
333.15 K, w1 = 0.7236 | 1025.4 | 3.9
333.15 K, w1 = 0.8349 | 1028.3 | 5.713
333.15 K, w1 = 0.9277 | 1029.3 | 8.023
333.15 K, w1 = 1 | 1028.4 | 10.72
343.15 K, w1 = 0.1113 | 985.3 | 0.5651
343.15 K, w1 = 0.2226 | 992.4 | 0.7245
343.15 K, w1 = 0.334 | 999.3 | 0.9821
343.15 K, w1 = 0.4453 | 1005.3 | 1.301
343.15 K, w1 = 0.501 | 1008.4 | 1.512
343.15 K, w1 = 0.6123 | 1014.1 | 2.123
343.15 K, w1 = 0.7236 | 1018.5 | 3.01
343.15 K, w1 = 0.8349 | 1021.5 | 4.303
343.15 K, w1 = 0.9277 | 1022.6 | 5.933
343.15 K, w1 = 1 | 1021.9 | 7.855
353.15 K, w1 = 0.1113 | 978.6 | 0.4871
353.15 K, w1 = 0.2226 | 986.3 | 0.6668
353.15 K, w1 = 0.334 | 992.6 | 0.8548
353.15 K, w1 = 0.4453 | 998.5 | 1.09
353.15 K, w1 = 0.501 | 1001.2 | 1.21
353.15 K, w1 = 0.6123 | 1006.8 | 1.731
353.15 K, w1 = 0.7236 | 1011.7 | 2.423
353.15 K, w1 = 0.8349 | 1014.4 | 3.317
353.15 K, w1 = 0.9277 | 1015.8 | 4.515
353.15 K, w1 = 1 | 1015.3 | 5.916
